In paper PMC7395068, “The evolution of strategies to minimise the risk of human drug-induced liver injury (DILI) in drug discovery and development” (Archives of Toxicology, 2020):
Read-outs that look alike come from different tables or passages of the source.

How the values were obtained:
[1] = system: human hepatocytes; conditions: cited from earlier work
[2] = system: HepG2 cells; conditions: cited from earlier work
[3] = system: THLE or HepG2 cells, isolated mitochondria, BSEP; conditions: cited from earlier work
[4] = system: PHH; conditions: cited from earlier work
[5] = cited from earlier work
[6] = system: hLiMTs; assay: Combined HCI (HCS) and cellular ATP 3D assay in hLiMTs; conditions: for AC50 / minimal effective concentration: Homo sapiens
[7] = system: hLiMTs; conditions: cited from earlier work
[8] = system: PHH spheroids; conditions: cited from earlier work
[9] = ref Chen 2011; cited from earlier work
[10] = read-out: Human plasma Cmax; total plasma Cmax.tot, median of 9 literature references; cited from earlier work
[11] = system: HepaRG spheroids; assay: Combined HCI (HCS) and cellular ATP 3D assay in HepaRG spheroids; conditions: for AC50 / minimal effective concentration: Homo sapiens
[12] = system: rBsep; conditions: In vitro Assay; ref Dawson 2012; cited from earlier work
[13] = cited from earlier work; remark: listed apart in the source
[14] = Plasma free fraction (fu) and unbound Cmax (Cmax,u); assay type: in vitro ADME, human; conditions: unbound plasma Cmax
[15] = system: THLE-Null and THLE-3A4 cells; conditions: In vitro Assay; ref Gustafsson 2014; cited from earlier work
[16] = system: primary human hepatocytes, NIH3T3 fibroblasts, BSEP, CYP3A4; conditions: cited from earlier work
[17] = system: HepG2 cells, primary human hepatocytes; conditions: In vitro Assay; ref Garside 2014; cited from earlier work
[18] = plasma free fraction; cited from earlier work
[19] = system: HepG2 C3A spheroid, BSEP, Glu/Gal in HepG2 cells, bioactivation; conditions: cited from earlier work
[20] = In vitro Assay, ref Persson 2013
[21] = Modeled in vitro assays (cytotoxicity, mitochondrial dysfunction, BSEP), ref Aleo et al. 2019
[22] = In vitro Assay, ref Proctor 2017
[23] = Microtissue model structural based (HCI), combined HCS and ATP, MEC < 25 × Cmax.tot cut-off
[24] = In vitro Assay, ref Schadt 2015

hLiMTs <25x Avg Cmax ATP ([6]; hLiMTs, ATP endpoint, cut-off <25x Avg Cmax): +ve
hLiMTs <100x Avg Cmaxu ATP ([6]; hLiMTs, ATP endpoint, cut-off <100x Avg Cmaxu): -ve
hLiMTs <25x Avg Cmax HCS ([6]; hLiMTs, HCS endpoints, cut-off <25x Avg Cmax): +ve
hLiMTs <100x Avg Cmaxu HCS ([6]; hLiMTs, HCS endpoints, cut-off <100x Avg Cmaxu): -ve
hLiMTs <25x Avg Cmax All ([6]; hLiMTs, all endpoints (ATP and HCS), cut-off <25x Avg Cmax): +ve
hLiMTs Cmax max All ([6]; hLiMTs, all endpoints, Cmax max used): +ve
hLiMTs Cmax min All ([6]; hLiMTs, all endpoints, Cmax min used): +ve
hLiMTs <10 uM All ([6]; hLiMTs, all endpoints, cut-off <10 uM): +ve (<10 uM)
hLiMTs <100x Avg Cmaxu All ([6]; hLiMTs, all endpoints, cut-off <100x Avg Cmaxu): -ve
HepaRG <25x Avg Cmax ATP ([11]; HepaRG, ATP endpoint, cut-off <25x Avg Cmax): +ve
HepaRG <100x Avg Cmaxu ATP ([11]; HepaRG, ATP endpoint, cut-off <100x Avg Cmaxu): -ve
HepaRG <25x Avg Cmax HCS ([11]; HepaRG, HCS endpoints, cut-off <25x Avg Cmax): +ve
HepaRG <100x Avg Cmaxu HCS ([11]; HepaRG, HCS endpoints, cut-off <100x Avg Cmaxu): -ve
HepaRG <25x Avg Cmax All ([11]; HepaRG, all endpoints (ATP and HCS), cut-off <25x Avg Cmax): +ve
HepaRG Cmax max All ([11]; HepaRG, all endpoints, Cmax max used): +ve
HepaRG Cmax min All ([11]; HepaRG, all endpoints, Cmax min used): +ve
HepaRG <10 uM All ([11]; HepaRG, all endpoints, cut-off <10 uM): +ve (<10 uM)
HepaRG <100x Avg Cmaxu All ([11]; HepaRG, all endpoints, cut-off <100x Avg Cmaxu): -ve
Human plasma Cmax,u [14]: 0.043 µM
SMILES: CCc1nn(CCCN2CCN(c3cccc(Cl)c3)CC2)c(=O)n1CCOc1ccccc1 [nefazodone, reference compound]
Structural based (HCI) ([1]; In vitro Assay, ref Xu 2008): +VE
DILI in vitro assay prediction, Xu (2008) ([1]; Structural based (HCI), human hepatocytes, ref Xu et al. 2008): +VE
Cluser analysis [2, 20]: +VE
Structural based (HCI) [2, 20]: +VE
DILI in vitro assay prediction, Persson (2013) ([2]; Structural based (HCI), HepG2, ref Persson et al. 2013): +VE
Partition Hybrid HRM Score ([3]; In vitro Assay, ref Aleo 2019): +VE
Ro2 Hybrid HRM Score ([3]; In vitro Assay, ref Aleo 2019): +VE
Partition Hybrid HRM Score ≥4, Aleo (2019) [3, 21]: +VE (Partition Hybrid HRM Score ≥4)
Partition Hybrid HRM Score ≥8, Aleo (2019) [3, 21]: +VE (Partition Hybrid HRM Score ≥8)
Rule of Two hybrid HRM Score ≥3, Aleo (2019) [3, 21]: +VE (Rule of Two hybrid HRM Score ≥3)
Rule of Two hybrid HRM Score ≥8, Aleo (2019) [3, 21]: +VE (Rule of Two hybrid HRM Score ≥8)
PHH/100xCmax, Proctor (2017) ([4]; 2D PHH, ATP, IC50 < 100 × Cmax.tot, ref Proctor et al. 2017): +VE (IC50 < 100 × Cmax.tot)
PHH/100uM, Proctor (2017) ([4]; 2D PHH, ATP, IC50 threshold 100 µM, ref Proctor et al. 2017): +VE (IC50 threshold of 100 µM)
PHH ATP <100uM [4, 22]: +VE (IC50 threshold of 100 µM)
DILI severity category (Chen et al. [2016]) ([5]; LTKB DILIrank category, ref Chen et al. 2016): Most
DILI severity category (Chen 2016) ([5]; human DILI classification, LTKB DILIrank, ref Chen et al. 2016): Most
DILI severity category ([5]; human DILI severity, ref Chen et al.): Most
DILI +VE (5-8), DILI -VE (-4) ([5]; ref Chen 2016): +VE
DILI severity category ([5]; ref Chen 2016): vMost-DILI-Concern
AC50 ([6]; read-out: ATP endpoint AC50): 12.1 µM
minimal effective concentration ([6]; read-out: ATP endpoint MEC): 8.98 µM
AC50 ([6]; read-out: HCS endpoint AC50): 23.4 µM
minimal effective concentration ([6]; read-out: HCS endpoint MEC): 13.8 µM
DILI prediction hLiMTs (HCS-MEC) [6, 23]: +VE (MEC < 25 × Cmax.tot cut-off)
hLiMTs ATP <100uM [7, 22]: +VE (IC50 threshold of 100 µM)
hLiMTs/100xCmax, Proctor (2017) ([7]; hLiMTs, ATP, IC50 < 100 × Cmax.tot, ref Proctor et al. 2017): +VE (IC50 < 100 × Cmax.tot)
hLiMTs/100uM, Proctor (2017) ([7]; hLiMTs, ATP, IC50 threshold 100 µM, ref Proctor et al. 2017): +VE (IC50 threshold of 100 µM)
hLiMTs ATP <20 x Cmax ([8]; In vitro Assay, ref Vorrink 2018): +VE (IC20 < 20 × Cmax.tot cut-off)
DILI in vitro assay prediction, Vorrink (2018) ([8]; PHH spheroids, ATP, 14 days, IC20 < 20 × Cmax.tot, ref Vorrink et al. 2018): +VE (IC20 < 20 × Cmax.tot cut-off)
DILI Score (FDA) (1-8) [9]: 8
Cmax [10]: 4.25 µM
AC50 ([11]; HepaRG, read-out: ATP endpoint AC50): 19.4 µM
minimal effective concentration ([11]; HepaRG, read-out: ATP endpoint MEC): 11.6 µM
AC50 ([11]; HepaRG, read-out: HCS endpoint AC50): 23.8 µM
minimal effective concentration ([11]; HepaRG, read-out: HCS endpoint MEC): 5.67 µM
DILI prediction HepaRG spheroids (HCS-MEC) [11, 23]: +VE (MEC < 25 × Cmax.tot cut-off)
Inhibition of rBsep cutoff<1& cmax u>.2 [12]: +VE
Inhibition of rBsep cutoff<3 [12]: +VE
Assigned DILI category ([13]; Chen et al. 2016 or literature alignment, ref Chen et al. 2016): 3
In vivo DILI ([13]; […]): +VE
In vivo DILI ([13]; ref Aleo 2019): +VE
In vivo DILI ([13]; ref Dawson 2012): +VE
In vivo DILI ([13]; ref Garside 2014): +VE
In vivo DILI ([13]; ref Gustafsson 2014): +VE
In vivo DILI ([13]; ref Persson 2013): +VE
In vivo DILI ([13]; ref Proctor 2017): +VE
In vivo DILI ([13]; ref Schadt 2015): +VE
In vivo DILI ([13]; ref Vorrink 2018): +VE
In vivo DILI ([13]; ref Williams 2019): +VE
In vivo DILI ([13]; ref Xu 2008): +VE
THLE-Null [15]: +VE
THLE-Null/3A4 [15]: +VE
DILI in vitro assay prediction, Schadt (2015) ([16]; BSEP & Metabolism based, ref Schadt et al. 2015): +VE
Cellular toxicity (3T3 cells) [16, 24]: -VE
Combined Assay [16, 24]: +VE
GSH adduct HML [16, 24]: +VE
Hepatocyte cellular toxicity [16, 24]: +VE
MitoTox 3T3 [16, 24]: +VE
TDI CYP3A4 [16, 24]: +VE
hBSEP inhibition [16, 24]: +VE
Cluster 1-6 +VE Assay [17]: +VE
fu [18]: 0.010
Bayesian Machine Learning DILI prediction, Williams (2019) ([19]; Bayesian modeling, ref Williams et al. 2019): +VE
Bayesian Machine Learning ([19]; In vitro Assay, ref Williams 2019): +VE
